From patent publication US20110263707A1, “MOSQUITO REPELLENT” (BIO & HNT, INC., priority 2007, published 2011)
Values joined by “and” are separate entries in the source; they are usually repeats but may differ in a detail not shown here. Equal entries are not always repeated.

System: Aedes aegypti
Assay: Examination of repellent activity using skin test (treated forearm in cage of mated female mosquitoes)
Type: in vivo
Conditions: for Effective repellency duration (average ± standard deviation): protection time until arm bitten by two cumulative mosquitoes
From the text: In this embodiment, Aedes aegypti was used test mosquitoes. The Aedes aegypti was supplied from Korea Research Institute of Bioscience and Biotechnology and reared indoor from generation to generation. The larvae of the Aedes aegypti were reared in a plastic container of 22×14×7 cm containing distilled water with a one to one mixture of chicken feed and yeast. Mosquito pupae were transferred into a paper cup and then placed in a rearing cage to emerge as adults. Here, the rearing cage was constructed with metal net. Males and females of the adult mosquitoes at one to one ratio were put in a rearing cage for two or three days for mating. The female mosquitoes were then used for repellency tests. Eight percent (8%) sugar water was supplied for the adult mosquitoes. The following rearing conditions were maintained: light condition of 16 h:8 h (day:night), temperature of 27±2° C., and relative humidity of 80±10%. In order to examine effectiveness of the mosquito repellents of the prepared sample solutions, one (1) […] of a sample solution was uniformly applied, using a metal rod, on a forearm of a volunteer human test subject between a wrist and an elbow. Thereafter, the arm treated with the test solution was inserted in a bioassay cage constructed with Plexiglass of 50×50×50 cm containing approximately 100 mated female mosquitoes. The number of mosquitoes trying to bite was recorded for three minutes in every thirty minutes for up to 4 hours. The time required to get the arm bitten by two cumulative mosquitoes was regarded as effective repellency duration. A net window of 40×40 cm was present at each side and top of the Plexiglass bioassay cage to allow air ventilation. A 15×15 cm hole was prepared at the front side of the Plexiglass bioassay cage and a long net sleeve was attached to the hole so that the test arm could be put into the cage for repellency test. At the beginning of each repellency test, an arm treated with solvent only was placed in the bioassay cage containing mosquitoes, in order to examine blood feeding activity of the mated female test mosquitoes. This test with the bioassay cage was carried out only when the arm was bitten by at least two mosquitoes for initial three minutes. In Table 3 and Table 4, the repellent efficiency was calculated using the following Equation 1. [formula]

[1] = concentration 2% (0.05 mg/cm^3), 30 minutes
[2] = concentration 2% (0.05 mg/cm^3), 60 minutes
[3] = concentration 2% (0.05 mg/cm^3), 90 minutes
[4] = concentration 2% (0.05 mg/cm^3), 120 minutes
[5] = concentration 2% (0.05 mg/cm^3), 150 minutes
[6] = concentration 2% (0.05 mg/cm^3), 180 minutes
[7] = concentration 2% (0.05 mg/cm^3), 210 minutes
[8] = concentration 2% (0.05 mg/cm^3), 240 minutes
[9] = concentration 2% in 91% isopropyl alcohol (0.05 mg/cm^3)
[10] = concentration 10% (0.25 mg/cm^3), 30 minutes
[11] = concentration 10% (0.25 mg/cm^3), 60 minutes
[12] = concentration 10% (0.25 mg/cm^3), 90 minutes
[13] = concentration 10% (0.25 mg/cm^3), 120 minutes
[14] = concentration 10% (0.25 mg/cm^3), 150 minutes
[15] = concentration 10% (0.25 mg/cm^3), 180 minutes
[16] = concentration 10% (0.25 mg/cm^3), 210 minutes
[17] = concentration 10% (0.25 mg/cm^3), 240 minutes
[18] = concentration 10% in 91% isopropyl alcohol (0.25 mg/cm^3), maximum measurement time 240 minutes

Row | Structure (SMILES) | Repellent efficiency (%) per time [1] [%] | Repellent efficiency (%) per time [2] [%] | Repellent efficiency (%) per time [3] [%] | Repellent efficiency (%) per time [4] [%] | Repellent efficiency (%) per time [5] [%] | Repellent efficiency (%) per time [6] [%] | Repellent efficiency (%) per time [7] [%] | Repellent efficiency (%) per time [8] [%] | Effective repellency duration (average ± standard deviation) [9] | Repellent efficiency (%) per time [10] [%] | Repellent efficiency (%) per time [11] [%] | Repellent efficiency (%) per time [12] [%] | Repellent efficiency (%) per time [13] [%] | Repellent efficiency (%) per time [14] [%] | Repellent efficiency (%) per time [15] [%] | Repellent efficiency (%) per time [16] [%] | Repellent efficiency (%) per time [17] [%] | Effective repellency duration (average ± standard deviation) [18] | Effective repellency duration (average ± standard deviation) (concentration 2% in 91% isopropyl alcohol (0.05 mg/cm^3), listed as neric acid) [min] | Effective repellency duration (average ± standard deviation) (concentration 10% in 91% isopropyl alcohol (0.25 mg/cm^3), maximum measurement time 240 minutes, listed as neric acid) [min]
1 | CCN(CC)C(=O)c1cccc(C)c1 [DEET, N,N-diethyl-m-toluamide] | 100 | 0 | 0 | 0 | 0 | 0 | 0 | 0 | 70 min and 70 ± 10.0 min | 100 | 100 | 100 | 100 | 87.5 | 81.3 | 78.1 | 71.9 | 218 min and 218 ± 10.8 min | – | –
2 | CC(C)=CCC/C(C)=C\C(=O)O [Neric acid, (Z,E)-3,7-dimethyl-2,6-octadienoic acid] | 100 | 83.1 | 70.4 | 52.1 | 39.4 | 26.8 | 18.3 | 14.1 | 106 ± 16.3 min | 100 | 100 | 100 | 100 | 100 | 100 | 100 | 95.3 | 240 ± 0 min | 106 | 240
3 | CCC(C)OC(=O)N1CCCCC1CCO (centres unmarked) [Picadirin] | – | – | – | – | – | – | – | – | – | 85.0 | 85.0 | 85.0 | 80.0 | 75.0 | 72.5 | 62.5 | 47.5 | 158 min and 158 ± 27.5 min | – | –
